Reference: patent publication US20130072517A1 (Avanir Pharmaceuticals, Inc., priority 2002, published 2013)

How the values were obtained:
[1] = tested on: ALS subjects with pseudobulbar affect; experiment: Clinical Study #4: laughing/crying episode counts (diary); format: in vivo, human
Method: (§1) Diary cards were collected on Day 15 and at the time of study completion.
(§2) The primary efficacy variable was the CNS-LS score. All efficacy variables involving a change were determined by the baseline score being subtracted from the mean of the non-missing scores on Days 15 and 29. The secondary efficacy variables were laughing/crying episodes, QOL scores, and QOR scores. […]
Secondary efficacy was assessed by using two, 10-cm visual analog scales (VAS). One scale asked subjects to rate how much uncontrollable laughter, tearfulness, or anger had affected the overall quality of their life during the past week, and one scale asked subjects to rate how much uncontrollable laughter, tearfulness, or anger had affected the quality of their relationships with others during the past week. Each scale required less than one minute to complete. The subjects recorded episodes of pathological laughing and crying in a diary daily.
An analysis of secondary efficacy data was conducted.

[2] = Clinical Study #1: adverse events in dextromethorphan phenotyping and quinidine dose determination study; details: single oral dose 30 mg capsule; headache, mild
Method: A phenotyping study directed to dextromethorphan was conducted. The study was an open-label single dose study. Subjects were screened to ensure they met the inclusion and exclusion criteria. Subjects received a single oral dose of dextromethorphan hydrobromide 30 mg capsule taken with 240 mL of tap water. A total of fifty-eight subjects were screened and fifty subjects dosed. The study determined each subject's ability to metabolize dextromethorphan. Subjects who met the inclusion/exclusion criteria remained in house for dosing. Each subject was administered one 30 mg capsule (P.M.) of dextromethorphan. Urine was collected predose through 12 hours postdose and analyzed for dextromethorphan and dextrorphan.
The study was an open-label, randomized, multiple dose study. Subjects identified as extensive metabolizers received an evening dose on Day 1, at 12-hour intervals for the next six days, with a final morning dose on Day 8. All subjects were instructed to dose themselves at home on eight occasions with medication dispensed to them. Subjects maintained a diary during the study to record adverse effects. […]
A total of eight blood samples (40 mL) were drawn during the study (including the dextromethorphan screen) for drug analysis. […] At the end of the interval, the total volume was recorded and two aliquots were frozen at −20° C. until assayed for dextromethorphan and dextrorphan.

[3] = tested on: ALS subjects with pseudobulbar affect; experiment: Clinical Study #4: CNS-LS score (primary efficacy); format: in vivo, human; details: for Difference vs 30DM/30Q, mean difference in the CNS-LS reduction: controlling for baseline CNS-LS and study site
Source text: This was a multicenter, randomized, double-blind, controlled, parallel-group study. All study drugs were self-administered orally every twelve hours for twenty-eight days. The study included a screening visit and three other clinic visits on Days 1, 15, and 29. Day 29 was the last day the subject was on study and could occur anywhere between the morning of Day 26 and the morning of Day 32.
Subjects with clinically diagnosed pseudobulbar affect were screened for general health within four weeks before entry into the study. All eligible subjects had attained a score of 13 or above on the Center for Neurologic Study-Lability Scale (CNS-LS) at the clinic visit on Day 1.
as §1
Subjects completed the CNS-LS questionnaire and visual analog scales assessing quality of life (QOL) and quality of relationships (QOR) every two weeks (Days 1, 15, and 29) during the treatment period. A clinical psychologist, or other approved clinician, administered the Hamilton Rating Scale for Depression (HRSD) at the Screening Visit and on Day 29. Safety was evaluated on Day 15 and Day 29 by examining adverse events, results of physical examinations, vital signs, clinical laboratory values, and resting electrocardiograms (ECGs). In addition to blood samples taken to provide clinical laboratory data, blood was also taken for pharmacokinetic analysis and CYP2D6 genotyping. Each subject completed a diary in which the number of episodes experienced, medications taken, and any adverse events were recorded daily.
as §2
The CNS-LS questionnaire used to assess primary efficacy is a seven-item self-report measure that provides a score for total pseudobulbar affect; it required approximately five minutes for the subject to complete. The range of possible scores was 7 to 35. […] This questionnaire is the only instrument for the measurement of pseudobulbar affect validated for use with ALS subjects.
The primary efficacy analysis was the change from baseline in CNS-LS scores, adjusted for center and baseline CNS-LS score. The descriptive statistics for the ITT Population are in Table 29.
These distributions have not been adjusted for baseline scores or for study site. […] As prospectively specified in the protocol, the differences in mean improvement in CNS-LS scores, adjusted for center and baseline CNS-LS scores, were analyzed by using linear regression according to the ANCOVA method of Frison and Pocock.

[4] = format: in vivo
Source text: An adverse event was any unfavorable and unintended sign (including an abnormal laboratory finding, for example), symptom, or disease temporally associated with the use of a medicinal product, whether or not considered related to the medicinal product. Changes associated with normal growth and development not varying in frequency or magnitude from that ordinarily anticipated clinically are not adverse events (for example, onset of menstruation occurring at a physiologically appropriate time). Clinical adverse events were described by diagnosis and not by symptoms when possible (for example, cold or seasonal allergies, instead of “runny nose”).
The severity of adverse events was graded on a 3-point scale and reported in detail as indicated on the Case Report Form: mild—easily tolerated, causing minimal discomfort, and not interfering with normal everyday activities; moderate—sufficiently discomforting to interfere with normal everyday activities; and severe—incapacitating and/or preventing normal everyday activities.
Subjects were instructed to promptly report any adverse event. The serious adverse event was assessed for the following details: seriousness of event, start date, stop date, intensity, frequency, relationship to test drug, action taken regarding test drug, treatment required, and outcome to date. These details were recorded on the Case Report Form. Such preliminary reports were followed by detailed descriptions that included copies of hospital case reports, autopsy reports, and other documents when requested and applicable.
Blood and urine were collected at the screening visit and Day 29 for clinical chemistry, hematology, urinalysis, and pregnancy testing. In the event of an abnormal laboratory test value, the test was repeated within one week, and the subject was followed up until the value returned to the normal range and/or until an adequate explanation of the abnormality was found.
(§3) Values were obtained for systolic and diastolic blood pressure, heart rate, and respiration rate on the screening visit and all other study visits. All values outside the pre-defined ranges were flagged in the subject data listings. Electrocardiography (twelve lead) was used to obtain ventricular rate (VR), QT, Q-Tc intervals, […] (PR), and QRS duration. A blood sample (10 mL whole blood) was taken from each subject at the Screening Visit for CYP2D6 genotyping to determine which subjects were poor metabolizers of DM and which were extensive metabolizers. Blood samples were taken on Day 29 for the determination of concentrations of DM, DX, and Q in plasma. The relationship between the concentration of drug in plasma and changes in CNS-LS scores was determined, and the effect of the CYP2D6 genotype on this relationship was evaluated.

[5] = Clinical Study #4: concentrations of DM, DX and Q in plasma on Day 29; format: in vivo, human; details: blood collection within 8 hours of last dose
Method: as §3
Q in this combination product inhibits the rapid first-pass metabolism of DM.

[6] = ITT population, diary, weighted by days in the study
[7] = proportional-variance (constant dispersion) negative binomial model
[8] = quadratic-variance (mean dispersion) negative binomial model
[9] = ITT population, mean of scores on Day 15 and Day 29 minus baseline (Day 1) score

COc1ccc2c(c1)[C@]13CCCCC1[C@H](C2)N(C)CC3 (single isomer, unassigned; (+)) [Dextromethorphan, (+)-3-methoxy-N-methylmorphinan]
Weekly episode counts, Crying, Max ([1]; ITT population, diary): 21.00
Weekly episode counts, Crying, Median ([1]; ITT population, diary): 0.70
Weekly episode counts, Crying, Min ([1]; ITT population, diary): 0.00
Weekly episode counts, Laughing, Max ([1]; ITT population, diary): 726.55
Weekly episode counts, Laughing, Median ([1]; ITT population, diary): 2.50
Weekly episode counts, Laughing, Min ([1]; ITT population, diary): 0.00
Weekly episode counts, Laughing/Crying, Max ([1]; ITT population, diary): 726.55
Weekly episode counts, Laughing/Crying, Median ([1]; ITT population, diary): 8.97
Weekly episode counts, Laughing/Crying, Min ([1]; ITT population, diary): 0.00
Weekly episode counts, Crying, Wtd. Mean [1, 6]: 4.30
Weekly episode counts, Laughing, Wtd. Mean [1, 6]: 35.29
Weekly episode counts, Laughing/Crying, Wtd. Mean [1, 6]: 39.58
Total episodes, times greater than in the 30DM/30Q group ([1]; Poisson regression model with adjustment for center): 6.4
Total episodes, ratio to the 30DM/30Q group ([1]; Poisson regression model, outlier omitted): 2.3
Crying, estimated ratio relative to the named group [1, 7]: 2.0
Laughing, estimated ratio relative to the named group [1, 7]: 1.4
Total counts, estimated ratio relative to the named group [1, 7]: 1.7
Laughing, estimated ratio relative to the named group ([1]; proportional-variance negative binomial model, outlier subject omitted): 1.5
Crying rates, factor between 30DM/30Q and the named group [1, 8]: twice
Laughing rates, factor between 30DM/30Q and the named group [1, 8]: 2.6
Total episode rates, factor between 30DM/30Q and the named group [1, 8]: 2.6
Adverse effects reported during the phenotyping study [2]: One
Difference vs 30DM/30Q, mean difference in the CNS-LS reduction ([3]; Efficacy Evaluable Population (n = 101)): −3.78
Difference vs 30DM/30Q, mean difference in the CNS-LS reduction ([3]; ITT Population (n = 125)): −3.29
Change in CNS-LS scores, Max [3, 9]: 2.0
Change in CNS-LS scores, Mean [3, 9]: −5.12
Change in CNS-LS scores, Median [3, 9]: −4.50
Change in CNS-LS scores, Min [3, 9]: −25.00
Difference vs 30DM/30Q, mean difference in the CNS-LS reduction ([3]; Safety Population (n = 136)): −3.09
Subjects with dizziness ([4]; 28 days, twice daily): 15.2%
Subjects with loose stools ([4]; 28 days, twice daily): Three
Subjects with nausea ([4]; 28 days, twice daily): 6.1%
Subjects with somnolence ([4]; 28 days, twice daily): 3.0%
Subjects who withdrew because of adverse events ([4]; human, in vivo, 29 days): 6.1%
CPK, change Baseline to Day 29 ([4]; relative to the 30DM/30Q group): significant increase in CPK
concentration of DM in plasma, Max [5]: 15.81
concentration of DM in plasma, Mean [5]: 5.18
concentration of DM in plasma, Median [5]: 4.55
concentration of DM in plasma, Min [5]: 0.35
